Assay results from patent publication US7897588B2, “Agents and methods for enhancing bone formation” (The Regents of the University of California, priority 2003, dated 2011).

What was measured:
osteocalcin mRNA = experiment: Northern blot for osteocalcin mRNA in M2 cells; assay type: cell-based, mouse
Procedure: RNA isolation and Northern blot analysis—Following treatment of cells under appropriate experimental conditions, total RNA was isolated using the RNA isolation kit from Stratagene (La Jolla, Calif., U.S.A.). Total RNA ([…]) was run on a 1% agarose/formaldehyde gel and transferred to Duralon-UV membranes (Strategene, Calif., U.S.A.) and cross-linked with UV light. The membranes were hybridized overnight at 60 degree C. with ^32P-labeled mouse osteocalcin cDNA probe, mouse lipoprotein lipase (LPL), mouse adipocyte protein 2 (aP2) PCR-generated probes, human 28S or 18S rRNA probes obtained from Geneka Biotechnology (Montreal, Quebec, Canada) and Maxim Biotech (San Francisco, Calif., U.S.A.), respectively. […] Following hybridization, the blots were washed twice at room temperature with 2×SSC+0.1% SDS, and then twice at 60 degree C. with 0.5×SSC+0.1% SDS, and exposed to X-ray film. The extent of gene induction was determined by densitometry.
After 4 and 8 days, total RNA from duplicate samples was isolated and analyzed for osteocalcin (Osc) and 28S rRNA expression by Northern blotting as described. FIG. 3E is a radiogram of Northern blotting for osteocalcin mRNA in M2 cells exposed to a control or combination of oxysterols for 4 or 8 days. FIG. 3F is a bar graph depicting the relative demsometric units of osteocalcin mRNA in M2 cells exposed to a control or combination of oxysterols for 4 or 8 days. Data from densitometric analysis of the Northern blot is shown in (F) as the average of duplicate samples, normalized to 28S rRNA.
Next, a combination of 22R and 20S oxysterols (RS, 2.5 μM each) were added in the presence or absence of SC as indicated. After 3 days, ALP activity was measured as described earlier. […] (B) M2 cells were treated as described in (A) and after 10 days matrix mineralization in cultures was quantified by a ^45Ca incorporation assay as described earlier. Results from a representative of three experiments are shown, reported as the mean±SD of quadruplicate determinations, normalized to protein concentration. (C) M2 cells were pretreated with 20 μM SC for 4 hours, followed by the addition of RS in the presence or absence of SC as described above. After 8 days, total RNA was isolated and analyzed for osteocalcin (Osc) and 18S rRNA expression by Northern blotting as previously described. Data from densitometric analysis of the Northern blot is shown in (D) as the average of duplicate samples, normalized to 18S rRNA. (E) M2 cells at confluence were pretreated for 2 hours with control vehicle (C), or PLA2 inhibitors ACA (25 μM) and AACOCF3 (AAC, 20 μM), in osteogenic medium. […] After 3 days, ALP activity was measured as previously described. […]

[1] = test system: M2-10B4 mouse marrow stromal cell line; experiment: Alkaline phosphatase (ALP) activity assay in M2 cells; assay type: cell-based; conditions: for dose and time dependence of induction of alkaline phosphatase activity: concentrations between 0.5-10 μM; for induction of alkaline phosphatase activity: osteogenic medium, 10 μM oxysterols, 3 days; for alkaline phosphatase activity: ligands used at 10 μM, control C: 18±2, ±SD
Procedure: Cells: M2-10B4 mouse marrow stromal cell line obtained from American Type Culture Collection (ATCC, Rockville, Md., U.S.A.) was derived from bone marrow stromal cells of a (C57BL/6J×C3H/HeJ) F1 mouse, and support human and murine myelopoiesis in long-term cultures (as per ATCC) and have the ability to differentiate into osteoblastic and adipocytic cells. Unless specified, these cells were cultured in RPMI 1640 containing 10% heat-inactivated FBS, and supplemented with 1 mM sodium pyruvate, 100 U/ml penicillin, and 100 […] (all from Irvine Scientific).
Alkaline phosphatase activity assay: Colorimetric alkaline phosphatase (ALP) activity assay on whole cell extracts was performed as previously described.
Test 1: M2 cells at confluence were treated with control vehicle (C), or 10 μM oxysterols, in an osteogenic medium consisting of RPMI 1640 to which 10% fetal bovine serum (FBS), 50 μg/ml ascorbate and 3 mM beta-glycerophosphate (βGP) were added. After 3 days of incubation, alkaline phosphatase (ALP) activity was determined in cell homogenates by a colorimetric assay. […] FIG. 3A is a bar graph depicting the effect of various oxysterols on alkaline phosphatase activity in M2 cells.
M2 cells at confluence were treated in osteogenic medium with control vehicle (C) or a combination of 22R and 20S oxysterols, at the indicated concentrations. ALP activity was measured after 3 days as described above. […] FIG. 3B is a bar graph depicting the effect of a combination of oxysterols at various doses on alkaline phosphatase activity in M2 cells.
Test 2: M2 cells were grown in RPMI medium containing 10% fetal bovine serum (FBS). At confluence, the cells were treated in RPMI containing 5% FBS plus ascorbate at 50 μg/ml and β-glycerophosphate at 3 mM to induce osteoblastic differentiation. Adipogenic differentiation was induced by treating the cells in growth medium plus 10 ˜M troglitazone. A vehicle (C) or oxysterol treatment was applied to cells in a variety of doses (in μM): 20S-Hydroxycholesterol, 25-Hydroxycholesterol, 22R-Hydroxycholesterol; 22S-Hydroxycholesterol; 7-ketocholesterol. Cells were always treated at 90% confluence. After 4 days, alkaline phosphatase activity was determined in whole cell lysates and normalized to protein. Alternatively, MSC cultures were prepared and treated with oxysterols as described above. Cells were treated at 90% confluence with the combination of 22R-Hydroxycholesterol and 20S-Hydroxycholesterol, each at 5 uM, for 4 to 96 hours. The oxysterols where removed and fresh media without oxysterols was added for a total duration of 96 hours. Alkaline phosphatase activity was measured in whole cell extracts and normalized to protein.
M2 cells were treated at 90% confluence with vehicle (C), or oxysterols 20S-Hydroxycholesterol or 22S-Hydroxycholesterol at (0.5 μM) or (1 μM), in the absence or presence of cytochrome P450 inhibitor (SKF525A 10 μM (+)). MSC cultures were also treated at 90% confluence with vehicle (C), or 20S-Hydroxycholesterol (2 μM), in the absence or presence of cytochrome P450 […] (Benzylimidazole 50 μM) or SKF525A (10 μM). After 4 days, alkaline phosphatase activity was measured in whole cell extracts and normalized to protein.
Next, a combination of 22R and 20S oxysterols (RS, 2.5 μM each) were added in the presence or absence of SC as indicated. After 3 days, ALP activity was measured as described earlier. […] (B) M2 cells were treated as described in (A) and after 10 days matrix mineralization in cultures was quantified by a ^45Ca incorporation assay as described earlier.

[2] = individual oxysterols 0.5-10 μM up to 14 days, combinations 5 μM each, 4 and 8 days

Row | Compound | induction of osteocalcin gene expression (osteocalcin mRNA; [2]) | dose and time dependence of induction of alkaline phosphatase activity [1] | induction of alkaline phosphatase activity [1] | induction of osteocalcin gene expression (osteocalcin mRNA; TO treatment, after 10 days) | effect on alkaline phosphatase activity ([1]; TO at 1-10 μM) | alkaline phosphatase activity [1] [activity units/mg protein]
1 | CC(C)CC[C@H](O)[C@@H](C)[C@H]1CC[C@H]2[C@@H]3CC=C4C[C@@H](O)CC[C@]4(C)[C@H]3CC[C@]12C [22S, 22(S)-hydroxycholesterol] | unable to induce | dose- and time-dependent | induced | – | – | –
2 | O=S(=O)(c1ccccc1)N(CC(F)(F)F)c1ccc(C(O)(C(F)(F)F)C(F)(F)F)cc1 [TO, TO-901317] | – | – | – | did not induce | dose-dependent inhibition | 3±0.5
3 | CC(C)CC[C@@H](O)[C@@H](C)[C@H]1CC[C@H]2[C@@H]3CC=C4C[C@@H](O)CC[C@]4(C)[C@H]3CC[C@]12C [22R, 22(R)-hydroxycholesterol] | unable to induce | dose- and time-dependent | induced | – | – | 45±5
4 | CC(C)CCC[C@](C)(O)[C@H]1CC[C@H]2[C@@H]3CC=C4C[C@@H](O)CC[C@]4(C)[C@H]3CC[C@@]21C [20S, 20(S)-hydroxycholesterol] | unable to induce | dose- and time-dependent | induced | – | – | 140±12
